In patent publication EP4559466A1, “MICROBIOTA SIGNATURE TO DETECT FOOD ADDICTION AND TREATMENT THEREOF” (Universitat Pompeu Fabra (UPF), priority 2023, dated 2025):

Experiments:
Blautia [1] = assay: Quantitative PCR of Blautia in mouse feces after prebiotic treatment; assay type: in vivo; settings: 1% in drinking water, feces collected at end of protocol, qPCR, vs control
Experimental: At the end of the protocol, feces were collected to quantify Blautia abundance in the gut by quantitative PCR. DNA was extracted from 0.18-0.2g of feces using QIAamp® Fast DNA Stool Mini kit (Qiagen, Germany) and was stored at -20°C.
To quantify the Blautia in the feces, primers g-Blau-R (5'-[…]-3') SEQ ID No 3 and g-Blau-F (5'- […]- 3'), targeting SEQ ID No 4 16S rRNA gene, were used, as previously described. Each reaction mixture (10 µl) comprises LightCycler 480 SYBR Green I Master (Roche Life Science, Germany) and 1ng/µl of genomic DNA. The amplification program consisted of one cycle at 95°C for 10 min, followed by 40 cycles at 94°C for 20 s, 55°C for 20 s, and 60°C for 40 s. The fluorescent products were detected in the last step of each cycle. qPCR amplification and detection were performed in 384-well optical plates with an QuantStudio 12K Flex Real-Time PCR System (Applied Biosystems). A melting curve analysis was performed at the end of the experiment to determine the specificity of an assay. The melting program consisted of the first step of 95°C for 15 s, the second step of 60°C for 1 min, and the last dissociation step of 95°C for 15 s. […]
A qPCR was performed to confirm the effectiveness of targeted prebiotics in increasing Blautia genus abundance in the gut. Based on the generated standard curve, the amount of Blautia per gram of feces was determined. […]

C57BI/6J mice = assay: Mouse food addiction operant protocol with prebiotics in drinking water; assay type: in vivo; settings: for mice that achieved the addiction criteria (2-3 criteria, considered addicted): 1% in drinking water during whole protocol, 120 sessions, late period (95-112 sessions), n=12 per group, 41.67% of control mice addicted, χ^2=8.57 control vs lactulose, χ^2=12 control vs rhamnose, P<0.01; for persistence of response: compared to control group
Experimental: Mice were trained to obtain chocolate-flavored pellets (n=59) in operant boxes during 98 sessions in 1 h-daily self-administration sessions. The operant boxes and daily self-administration protocol of food addiction were accurately described in previous publications (Martín-García E, Domingo-Rodriguez L, Maldonado R. An Operant Conditioning Model Combined with a Chemogenetic Approach to Study the Neurobiology of Food Addiction in Mice. Bio-Protocol 2020;10:1-23. doi:10.21769/bioprotoc.3777; Domingo-Rodriguez L, Ruiz de Azua I, Dominguez E, et al. A specific prelimbic-nucleus accumbens pathway controls resilience versus vulnerability to food addiction. Nat Commun 2020;11:1-16. doi:10.1038/s41467-020-14458-y). Mice were under fixed-ratio 1 (FR1) during six sessions, followed by 92 sessions under FR5. The food addiction-like behavior was evaluated during this operant conditioning maintained by food at a late period (82-92 sessions) to classify mice into the addictive phenotype considering three food addiction-like criteria (1) persistence of response, (2) motivation, and (3) compulsivity. These criteria summarized the main features of the human food addiction diagnosis through the Yale Food Addiction Scale (YFAS 2.0) based on the 5th edition of the diagnostic and statistical manual of mental disorders (DSM-5) for substance use disorders. The three behavioral tests performed to evaluate these three addiction-like criteria (responding during the pellet-free period for the persistence of response, progressive ratio schedule for motivation, and shock-associated unconditioned stimulus for compulsivity) were performed as previously described (Mancino S, Burokas A, Gutiérrez-Cuesta J, et al. Epigenetic and Proteomic Expression Changes Promoted by Eating Addictive-Like Behavior. Neuropsychopharmacology 2015;40:2788-800. doi:10.1038/npp.2015.129). At the end of the late period, animals were categorized into two subpopulations, food-addicted or nonaddicted, depending on the number of addiction-like criteria achieved. Mice with two or three addiction-like criteria were considered addicted, and mice with 0 or 1 addiction-like criteria were considered nonaddicted.
Additionally, four additional phenotypic traits were also evaluated as factors of vulnerability, impulsivity, cognitive inflexibility, appetitive and aversive cue-reactivity. • Impulsivity, the inability to stop a response once it is initiated, was measured as the number of non-reinforced active responses during the time-out period (10 s) after each pellet delivery. This impulsivity-like behavior was delimited to the three consecutive days before the progressive ratio. • Cognitive inflexibility is the incapacity to shift responding to stimuli that have previously predicted the availability of reward. […] In the next 30 min, the cue light associated with pellet delivery during a typical operant training session was illuminated with no contingent pellet reinforcement. To signal the change in the schedule, the cue light was presented twice non-contingently and for 4 s. • Aversive cue-reactivity: To study the conditioning to an aversive stimulus (grid floor), non-reinforced active responses during the following session after the shock test were measured. Mice were placed in the operant box for one hour with the same grid floor used during the shock test. However, during this session, pressing the active lever had no consequences: no shock, no chocolate-flavored pellets, and no cue light.
Mice (n=36) were trained in the same experimental conditions previously described to obtain chocolate flavored pellets during 120 sessions of a 1h-daily self-administration protocol. The duration of training was enhanced in this experiment in order to allow a longer exposure to the prebiotics that could facilitate their effects to modify the behavioral responses. Mice were trained for six days at FR1, followed by 114 FR5 sessions. […]

Blautia [2] = settings: Reichardt et al. 2018 (rhamnose); Cui et al. 2021 (lactulose); cited from earlier work
[3] = 1% in drinking water, late period

Row | SMILES | Blautia abundance in the gut (amount of Blautia per gram of feces) (Blautia [1]) | mice that achieved the addiction criteria (2-3 criteria, considered addicted) (C57BI/6J mice) | persistence of response (C57BI/6J mice; [3]) | amount of Blautia in mice feaces (Blautia [2]) | cognitive inflexibility (C57BI/6J mice; 1% in drinking water, late period, compared to control (U=35.50, P<0.05) and lactulose (U=17.00, P<0.001)) | compulsivity in seeking for palatable food (C57BI/6J mice; 1% in drinking water, late period, compared to control mice, Mann-Whitney's U=31.50, P<0.01) | motivation for chocolate-flavored pellets (C57BI/6J mice; 1% in drinking water, late period, rhamnose compared to lactulose, Mann-Whitney's U=31.50, P<0.05)
1 | OC[C@H]1O[C@@H](O[C@@H]2[C@@H](CO)OC(O)(CO)[C@H]2O)[C@H](O)[C@@H](O)[C@H]1O (stereo partly drawn) [lactulose, 4-O-β-D-galactopyranosyl-D-fructofuranose, reference compound] | non-significant trend to enhance | none | similar | increases | – | – | –
2 | C[C@@H]1OC(O)[C@H](O)[C@H](O)[C@H]1O (stereo partly drawn) [rhamnose, (3R,4R,5R,6S)-6-methyloxane-2,3,4,5-tetrol] | significantly increased | none | similar | increases | lower | decreased | reduced
